Source: PubChem BioAssay AID489033 (Sanford-Burnham Center for Chemical Genomics, 2010)
Activity calls are given as the source filed them. How the calls were made is not given here.

test system: 697B B-cell line, NF-kB luciferase reporter luminescence; assay: NF-kB reporter inhibition in B cells, dose response, selectivity assay for T-cell antigen receptor NF-kB inhibitors, 697B cells, luminescence (AID 489033)

Compound	IC50
O=C(O)c1ccc(-c2ccc(-c3ccccc3)cc2)s1	2.46 µM
COc1ccc(CNC(=O)c2c(C)oc3c2C(=O)c2ccccc2C3=O)cc1	> 80 µM (inactive)
Cc1ccc(COC(=O)c2cc([N+](=O)[O-])ccc2N2CCOCC2)cc1	> 80 µM (inactive)
CCCCC(=O)NC(c1ccc(N(C)C)cc1)c1ccc2cccnc2c1O (configuration not stated)	> 80 µM (inactive)
O=c1cc(-c2cccc(F)c2)[nH]c2ccccc12	> 80 µM (inactive)
COc1cccc(/C=N/Nc2ccc(C(=O)O)cc2)c1O	0.83 µM
CCCC(=O)NC(c1ccc(C(C)C)cc1)c1ccc2cccnc2c1O (configuration not stated)	> 80 µM (inactive)
COC(=O)C(Cc1ccc(N(CCCl)CCCl)cc1)N=Cc1ccccc1O (configuration not stated)	0.31 µM
COc1ccc2c(c1)/C(=C/c1cnc[nH]1)C(=O)N2	4.8 µM
CCN(CC)c1ccc(/C=C/c2ccc3ccc(OC)cc3[n+]2CC)cc1	2.84 µM
CCOc1ccc(S(=O)(=O)NCc2ccccn2)cc1NC(=O)c1ccccc1F	> 80 µM (inactive)
O=C(NCc1ccc2c(c1)OCO2)c1cc([N+](=O)[O-])ccc1N1CCOCC1	> 80 µM (inactive)
Cc1c(C(=O)OC2CCCC2)[nH]c2c1C(=O)CC(c1ccco1)C2 (configuration not stated)	> 80 µM (inactive)
CSc1nccc(-c2nn(-c3ccc(C)cc3)ccc2=O)n1	> 80 µM (inactive)
C=C(C)COc1ccc(-c2[nH]ncc2-c2ccc(OC)c(OC)c2)c(O)c1	41.7 µM (inactive)
Cc1cc(C(C)(C)C)cc(C)c1C[n+]1ccc2ccccc2c1	> 80 µM (inactive)
O=C(N/N=C/c1c(O)ccc2ccccc12)c1ccc(Br)o1	> 80 µM (inactive)
CCCCN=C[C@]12CCC(O)CC1(O)CCC1[C@@H]2CC[C@]2(C)[C@H](C3C=CC(=O)O3)CCC12O (some centres not stated)	2.49 µM
O=C(COc1ccccc1-c1ccccc1)N/N=C/c1cccc2ccccc12	> 80 µM (inactive)
Clc1ccc2c(c1)C(C1=NCCN1)c1ccccc1CS2 (configuration not stated)	> 80 µM (inactive)
COc1ccc(-c2c(C#N)c(N)nc3c2CCc2ccccc2-3)cc1OC	54.4 µM (inactive)
Cc1ccc2nc(C)c(CN3CCN(c4ccc([N+](=O)[O-])cc4Cl)CC3)n2c1	> 80 µM (inactive)
CC(=O)Nc1ccc(S(=O)(=O)N2c3ccccc3C(C)=CC2(C)C)cc1	> 80 µM (inactive)
COc1cc(-c2noc(C)c2-c2ccc3[nH]ccc3c2)cc(OC)c1OC	> 80 µM (inactive)

Compound	IC50
Nc1nc(Cl)cc(N2CCC(c3cc(-c4ccc(Cl)cc4)n[nH]3)CC2)n1	5.28 µM
COc1ccc(NC(=O)C(=O)NCC2CCCN2S(=O)(=O)c2ccc(C)cc2)cc1 (configuration not stated)	> 80 µM (inactive)
O=C(c1ccccc1)c1cc([N+](=O)[O-])ccc1N1CCOCC1	> 80 µM (inactive)
O=C(Nc1ccc(S(=O)(=O)N2CCCCC2)cc1)c1ccc(CN2CCOCC2)cc1	51.2 µM (inactive)
CCN(CC)S(=O)(=O)c1cc(NC(=O)CNc2cccc(S(=O)(=O)N3CCCC3)c2)ccc1C	> 80 µM (inactive)
Cc1cccc(NS(=O)(=O)c2ccc(-c3cnc(C4CC4)o3)cc2)c1C	36.7 µM (inactive)
O=C(c1cc(-c2ccncc2)nc2c(Cl)cccc12)N1CCN(c2ccccc2F)CC1	> 80 µM (inactive)
COc1ccc(/C=C2/C(=O)OCc3cc(OC)c(OC)cc32)cc1	> 80 µM (inactive)
Cc1ccc(C[n+]2c(-c3ccc(C)cc3)cc(-c3ccc(C)cc3)cc2-c2ccc(C)cc2)cc1	0.29 µM
O=Cc1cc2ccccc2nc1SCc1ccc(Cl)c(Cl)c1	48.8 µM (inactive)
Nc1nc2n[nH]nc2c(=O)[nH]1	2.56 µM
Cc1ccc(N/C(N)=N/c2nc(CSc3nnc(C)s3)cc(=O)[nH]2)c(C)c1	> 80 µM (inactive)
COc1ccc(C)cc1NS(=O)(=O)c1ccc(-c2cnc(C3CC3)o2)cc1	> 80 µM (inactive)
CCCCN1/C(=C/c2ccc3ccccc3[n+]2CC)Sc2ccccc21	8.19 µM
CCOc1ccccc1N1CC(O)=C(c2nc3ccccc3s2)C1=N	61 µM (inactive)
CCOC(=O)/C=C/S(=O)(=O)c1ccc(NC(C)=O)cc1	0.39 µM
CSc1nc(N(C)NC(=O)c2cccc(C)c2)c2ccccc2n1	> 80 µM (inactive)
CCCCCCCn1c2c(c(=N)c3ccccc31)CCC2	3.7 µM
COC(=O)Cc1[nH]n(-c2nc3ccccc3s2)c(=O)c1C(C)=Nc1ccc(OC)cc1	4.93 µM
Cc1ccc(C(=O)O/N=C(\N)c2ccccn2)c(C)c1	0.85 µM
CCO[C@H]1OC(C(=O)NCc2nc3ccccc3[nH]2)=C[C@@H](C2CC2)[C@@H]1CCCO	> 80 µM (inactive)
O=C(Nc1ccncc1)c1ccc(Cl)c(S(=O)(=O)N2CCc3ccccc32)c1	61.9 µM (inactive)
O=S(=O)(c1ccc2c(c1)OCCO2)N1CCN(c2ncnc3sccc23)CC1	4 µM
COc1cc2c(cc1O)CC[C@@H]1[C@@H]2CC[C@]2(C)[C@@H](O)CC[C@@H]12	> 80 µM (inactive)

Compound	IC50
CCCCn1c2c(c(=N)c3c1CCC3)CCC2	> 80 µM (inactive)
Cc1ccc(C)c(CSc2nc3[nH]ncc3c(=O)[nH]2)c1	15.7 µM
CCCOc1ccccc1C1CC(=O)Nc2cc3c(cc21)OCO3 (configuration not stated)	> 80 µM (inactive)
COc1ccc(C(NC(=O)C(C)C)c2ccc3cccnc3c2O)cc1 (configuration not stated)	> 80 µM (inactive)
COc1ccc(-n2cc(-c3ccc(C)cc3)[n+]3c2SCC3)cc1	> 80 µM (inactive)
O=c1cc(-c2ccccc2)[nH]c2cc(Cl)ccc12	> 80 µM (inactive)
COc1cccc(N2CCN(C(=O)c3ccc(CS(=O)c4ccccc4Cl)o3)CC2)c1 (configuration not stated)	69.8 µM (inactive)
COc1ccc(-c2ccc3oc(-c4ccc(OC)cc4)c(C#CCO)c3c2)cc1	> 80 µM (inactive)
Cc1cnc(NC(=O)c2ccc3c(c2)OCCO3)s1	1.08 µM
CCOC(=O)C(C)Oc1cccc2c(=O)n(CC(=O)NCc3ccccc3)ccc12 (configuration not stated)	> 80 µM (inactive)
CCCc1cc(C(=O)N/N=C/c2ccc(CC)s2)c2ccccc2n1	11.6 µM
O=C(Nc1ccc(F)cc1)c1ccc(CN2CCc3ccccc3C2)cc1	> 80 µM (inactive)
O=C(CNC(=O)c1ccco1)N=Nc1c(O)n(CCc2ccccc2)c2ccccc12	> 80 µM (inactive)
COC(=O)c1ccc(C)c(NS(=O)(=O)c2ccc3c(c2)OCCO3)c1	> 80 µM (inactive)
O=C(Nc1ccc(Oc2cccnc2)nc1)c1ccc(C(F)(F)F)cc1	0.25 µM
COc1cccc(CN(C)C(=O)c2cc(COc3ccc4ncccc4c3)on2)c1	> 80 µM (inactive)
COc1ccc(C)c(Cn2c(-c3nonc3N)nc3ccccc32)c1	> 80 µM (inactive)
CCC(=O)N1c2ccc(S(=O)(=O)N3CCN(c4ccc([N+](=O)[O-])cc4)CC3)cc2CC1C (configuration not stated)	> 80 µM (inactive)
COc1ccc([C@H]2CC(=O)C=C(c3c(OC)cccc3OC)C2)cc1	> 80 µM (inactive)
COc1ccccc1CNS(=O)(=O)c1ccc(-c2cc(C)no2)cc1	> 80 µM (inactive)
Cc1nn(-c2ccccc2Cl)c(Cl)c1/C=N/Nc1nc2ccccc2s1	< 0.16 µM
Cc1ccccc1NC1=C/C(=N\S(=O)(=O)c2cccs2)c2ccccc2C1=O	6.69 µM
O=[N+]([O-])c1ccc(Sc2ccc(Cl)c(Cl)c2)nc1	13.1 µM
COc1cccc(N2CCN(C(=O)c3ccc(CS(=O)c4ccccc4C)o3)CC2)c1 (configuration not stated)	> 80 µM (inactive)
